Source: PubChem BioAssay AID1645868 (Buhrlage Lab, Dana-Farber Cancer Institute and Novartis …, 2021)
Calls of active or inactive are those of the source.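 How the source made its calls: active means maximal percent inhibition of the deubiquitinase OTUD3 of at least 30% across the tested doses; inactive means the rest.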

The molecules below were run against OTU domain-containing protein 3 (Homo sapiens) (UniProt Q5T2D3) (assay: Validation of screening hits, potency titration, in vitro enzymatic, OTU domain-containing protein 3 DUB inhibitors (AID 1645868)). Conditions: purified OTUD3, ubiquitin-rhodamine cleavage fluorescence, 2 h.
Chain of OTU domain-containing protein 3 (Homo sapiens) (Q5T2D3 whole entry, looked up, the tested form may be a part): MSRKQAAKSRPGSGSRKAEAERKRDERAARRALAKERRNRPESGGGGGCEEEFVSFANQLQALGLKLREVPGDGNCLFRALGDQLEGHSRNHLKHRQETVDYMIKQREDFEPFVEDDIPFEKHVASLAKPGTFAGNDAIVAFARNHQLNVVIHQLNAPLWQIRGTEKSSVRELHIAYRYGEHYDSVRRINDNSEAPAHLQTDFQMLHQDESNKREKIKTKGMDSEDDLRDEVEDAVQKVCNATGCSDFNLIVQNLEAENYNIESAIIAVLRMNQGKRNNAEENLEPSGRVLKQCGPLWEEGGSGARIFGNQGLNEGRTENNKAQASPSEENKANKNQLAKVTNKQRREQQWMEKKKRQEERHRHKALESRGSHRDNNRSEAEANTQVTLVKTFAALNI

Compound | IC50
COc1ccc(-n2nnc3c(SCC(=O)Nc4cc(C)on4)ncnc32)cc1 | > 50 µM (inactive)
O=S(=O)(O)c1cc2cc3ccccc3cc2[nH]1 | > 50 µM (inactive)
O=C(Nc1nc2c(s1)COCC2)c1cc(-c2ccco2)[nH]n1 | > 50 µM (inactive)
COc1ccccc1CNC(=O)c1ccccc1OCc1ccccc1Cl | > 50 µM (inactive)
COc1ccccc1NC(=O)c1nn(-c2cccc(F)c2)c(OC)cc1=O | > 50 µM (inactive)
Cc1nn(C)c2c1[C@@H](c1ccc(F)c(Br)c1)[C@H](NC(=O)c1ccccc1)C(=O)N2 | > 50 µM (inactive)
O=C(NCc1ccc2c(c1)OCO2)c1ccc(C2SCC(=O)N2Cc2ccco2)cc1 (stereo unspecified) | > 50 µM (inactive)
Cc1cccc(-c2nc3n(CC(=O)Nc4ccc(Cl)cc4)c(C)cc(=O)n3n2)c1 | 2 µM
N#Cc1c(Cl)cccc1Oc1ccc(S(=O)(=O)N2CCC(O)CC2)cc1 | 21.3 µM
COc1ccccc1NC(=O)c1cc(-c2ccccn2)nc2ccccc12 | 39.3 µM
O=C(NCc1ccc(Cl)cc1)c1ccc(N2CCCS2(=O)=O)cc1 | > 50 µM (inactive)
COc1ccccc1-c1ccc(CN2[C@@H](c3ccccc3)C[C@@H]3NC(=O)CCC[C@H]32)cc1 | > 50 µM (inactive)
COc1ccc(NC(=O)COc2cc(CSc3ccccc3)ncc2OC)cc1 | > 50 µM (inactive)
Cc1cc(O)c(=O)cc2c1C[C@H]1CC(C)(C)/C=C/C[C@@]3(C)Oc4cc(=O)c(O)cc(C)c4C[C@@H]3C[C@H](O)[C@]1(C)O2 | > 50 µM (inactive)
CC1(C)CC(n2[nH]c(=O)c3c2NC(=O)CSC3c2ccc(OCc3ccccc3)cc2)CCO1 (stereo unspecified) | 22.4 µM
COC1=CC(=O)c2c(O)c3c(c(C)c2C1=O)C[C@@]1(O)[C@H](O[C@H]2CC[C@H](O[C@H]4C[C@@](C)(O)[C@H](OC(=O)c5c(C)ccc(C)c5O)[C@H](C)O4)[C@@H](C)O2)C(=O)C(C(C)=O)=C(O)[C@@]1(O)C3=O | 2.63 µM

Compound | IC50
COc1ccccc1OCc1ccc(C(=O)Nc2ccc(F)cc2C)cc1 | > 50 µM (inactive)
Cc1ccc(C(=O)Nc2ccc(S(=O)(=O)N3CCCC3)cc2)cc1Br | > 50 µM (inactive)
Cc1csc2ncc(C(=O)N3CCN(c4ccccc4F)CC3)c(=O)n12 | > 50 µM (inactive)
C/C=C(\Cl)C1=CC(=O)[C@]23C[C@H]2[C@@]2(C)CO[C@@]1(O)[C@@]3(O)O2 | > 50 µM (inactive)
CC1CC[C@]2(NC1)O[C@H]1C[C@H]3[C@@H]4CC[C@H]5C[C@@H](O[C@@H]6O[C@H](CO)[C@H](O[C@@H]7O[C@H](CO)[C@@H](O)[C@H](O[C@@H]8OC[C@@H](O)[C@H](O)[C@H]8O)[C@H]7O[C@@H]7O[C@H](CO)[C@@H](O)[C@H](O)[C@H]7O)[C@H](O)[C@H]6O)CC[C@]5(C)[C@H]4CC[C@]3(C)[C@H]1[C@@H]2C (stereo partly specified) | > 50 µM (inactive)
Cc1c(C(=O)c2ccccc2)c2ccccn2c1CCc1ccccn1 | > 50 µM (inactive)
Cc1cc(C(=O)N2CC(C(=O)Nc3cc(C(F)(F)F)ccc3Cl)C2)no1 | > 50 µM (inactive)
O=C(NCCc1ccccc1)c1nnn(Cc2cccc(Cl)c2)c1-n1cccc1 | > 50 µM (inactive)
CCCCNC(=O)c1cc2cccnc2n(Cc2ccccc2)c1=O | > 50 µM (inactive)
O=C1COc2ccccc2N1Cc1noc(-c2ccccc2)n1 | > 50 µM (inactive)
CC1CC(=O)Nc2ccccc2N1S(=O)(=O)c1ccc(C#N)cc1 (stereo unspecified) | > 50 µM (inactive)
CCS(=O)(=O)c1ccccc1C(=O)Nc1ccc2sc(C)nc2c1 | > 50 µM (inactive)
Cc1cc(C)nc(-n2nc(C)c3c2NC(=O)CSC3c2ccc(F)cc2F)n1 (stereo unspecified) | 47.2 µM
COc1ccc(OCC(=O)Nc2ccc(C)c(OCc3cc(=O)n4ccccc4n3)c2)cc1 | > 50 µM (inactive)
CCCc1c(C(=O)O)c(O[C@H]2O[C@H](C)[C@@H](OC)[C@H](OC)[C@@H]2OC)cc2cc3c(c(O)c12)C(=O)c1c(O)cc(O[C@@H]2O[C@@H](C)[C@H](O[C@H]4O[C@H](C)[C@@H](OC)[C@H](OC)[C@@H]4O)[C@@H](OC)[C@H]2O)cc1C3=O | > 50 µM (inactive)
